Measured values reported in the supplement of paper PMC10307832.

Tests used:
Experiment in all cases: relative viability (nuclei count vs DMSO), 5 days (fraction); higher = more cells survive
[1] = compound: COC1=CC=C(C=C1)COC2=C(C=C(C=C2)CC3=CN=C(N=C3N)N)OC [GW-2580]
How it was run: (§1)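 In 1536-well plates, lung cancer cell lines rested overnight at 37 °C before five library-drug doses (not always all listed), √10 apart, were pinned onto vehicle-anchored plates. Nuclei were counted with MetaXpress from 4× Hoechst images taken after 5 days without medium change. Viability compares treated-well with vehicle-well nuclei as a median over plates, and plates needed control CV below 25% plus at least one doubling to pass.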

[2] = compound: Cc1cnc(Nc2ccc(OCCN3CCCC3)cc2)nc1Nc1cccc(S(=O)(=O)NC(C)(C)C)c1 [Fedratinib]
How it was run: as §1

[3] = compound: COC1=CC=C(C=C1)COC2=C(C=C(C=C2)CC3=CN=C(N=C3N)N)OC [GW-2580] + Nc1nc2[nH]cc(CCc3ccc(C(=O)N[C@@H](CCC(=O)O)C(=O)O)cc3)c2c(=O)[nH]1 [Pemetrexed] (partner 0.2 µM)
How it was run: (§2)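 A single step with final 0.05% Triton X-100, 1% formaldehyde and 1 ug/ml Hoechst fixed the cells and stained nuclei 5 days after treatment. Lung cancer cell lines in 1536-well plates had been treated by pin tool the day after seeding with one drug alone or a fixed anchor-drug dose plus five library-drug doses (not always all listed) in √10 steps, and nuclei were counted on 4× images. Relative viability is the ratio of nuclei in treated wells to nuclei in vehicle wells, taken as the median of duplicate plates.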

[4] = compound: COC1=CC=C(C=C1)COC2=C(C=C(C=C2)CC3=CN=C(N=C3N)N)OC [GW-2580] + Cc1nc(NC(=O)N2CCC[C@H]2C(N)=O)sc1-c1ccnc(C(C)(C)C(F)(F)F)c1 [Alpelisib] (partner 2 µM)
How it was run: as §2

[5] = compound: Cc1cnc(Nc2ccc(OCCN3CCCC3)cc2)nc1Nc1cccc(S(=O)(=O)NC(C)(C)C)c1 [Fedratinib] + CC(C)C[C@H](NC(=O)[C@H](Cc1ccccc1)NC(=O)c1cnccn1)B(O)O [Bortezomib] (partner 0.002 µM)
How it was run: as §2

Row | Cell Line | relative viability ([1]; 0.08 µM) | relative viability ([1]; 0.8 µM) | relative viability ([1]; 2.53 µM) | relative viability ([1]; 8 µM) | relative viability ([2]; 0.1 µM) | relative viability ([2]; 0.3162 µM) | relative viability ([2]; 1 µM) | relative viability ([3]; first compound 0.08 µM) | relative viability ([3]; first compound 0.8 µM) | relative viability ([3]; first compound 2.53 µM) | relative viability ([3]; first compound 8 µM) | relative viability ([4]; first compound 0.08 µM) | relative viability ([4]; first compound 0.8 µM) | relative viability ([4]; first compound 2.53 µM) | relative viability ([4]; first compound 8 µM) | relative viability ([5]; first compound 0.1 µM) | relative viability ([5]; first compound 0.3162 µM) | relative viability ([5]; first compound 1 µM)
1 | NCI-H1623 | 0.947 | 0.998 | 0.828 | 0.96 | 1.04 | 0.987 | 0.935 |  |  |  |  |  |  |  |  |  |  | 
2 | NCI-H1944 | 1 | 0.999 | 0.972 | 0.886 | 0.965 | 1.01 | 0.909 | 0.621 | 0.638 | 0.556 | 0.512 | 0.826 | 0.94 | 0.828 | 0.759 |  |  | 
3 | NCI-H1703 | 0.855 | 0.991 | 1.02 | 0.919 | 0.518 | 0.794 | 0.686 |  |  |  |  | 0.308 | 0.334 | 0.323 | 0.331 | 0.244 | 0.341 | 0.24
4 | Calu-6 | 1.12 | 1.1 | 0.96 | 1.04 | 1.03 | 1.04 | 0.971 |  |  |  |  | 1.08 | 0.964 | 0.902 | 1.07 | 1.05 | 0.981 | 0.771
5 | EBC-1 | 1.07 | 1.17 | 0.889 | 0.949 | 0.893 | 0.988 | 0.878 |  |  |  |  | 0.91 | 1 | 0.746 | 0.887 | 0.478 | 0.501 | 0.39
6 | NCI-H358 | 0.965 | 1.03 | 0.874 | 0.789 | 0.999 | 0.911 | 0.884 | 0.171 | 0.186 | 0.166 | 0.178 | 0.967 | 0.872 | 0.851 | 0.775 |  |  | 
7 | IA-LM | 0.849 | 1.1 | 0.913 | 0.936 | 1.01 | 0.87 | 0.931 |  |  |  |  | 1.11 | 0.725 | 0.656 | 0.883 | 0.747 | 0.784 | 0.642
8 | NCI-H1793 | 0.95 | 1.05 | 0.711 | 0.852 | 0.884 | 0.886 | 0.619 | 0.982 | 1.08 | 0.649 | 0.844 | 0.659 | 0.679 | 0.634 | 0.775 |  |  | 
9 | ChaGo-K-1 | 0.938 | 0.985 | 1.01 | 0.999 | 0.953 | 0.948 | 0.958 | 0.274 | 0.256 | 0.267 | 0.262 |  |  |  |  | 0.932 | 1.1 | 0.777
10 | NCI-H2342 | 0.921 | 1.05 | 0.775 | 0.97 | 1.08 | 1.06 | 0.994 | 0.705 | 0.828 | 0.682 | 0.733 |  |  |  |  |  |  | 
11 | NCI-H1299 | 1.08 | 1.03 | 1 | 0.937 | 1.01 | 1.03 | 1 |  |  |  |  | 1.2 | 1.04 | 1.04 | 1.07 | 1.05 | 1.02 | 1.01
12 | NCI-H1650 | 1.08 | 1.11 | 0.83 | 1.05 | 0.715 | 1.01 | 0.748 | 0.468 | 0.391 | 0.418 | 0.371 |  |  |  |  | 0.199 | 0.221 | 0.193
13 | SW 900 | 0.767 | 0.876 | 0.833 | 0.771 | 0.78 | 0.847 | 0.768 | 0.509 | 0.511 | 0.495 | 0.547 |  |  |  |  |  |  | 
14 | NCI-H727 | 1.14 | 1.03 | 0.971 | 0.823 | 1.03 | 0.928 | 0.813 |  |  |  |  | 0.664 | 0.594 | 0.615 | 0.453 | 0.655 | 0.733 | 0.178
15 | SK-MES-1 | 1.1 | 1.08 | 0.96 | 0.984 | 0.977 | 1.02 | 0.911 | 1.01 | 1.04 | 0.878 | 0.824 | 1.15 | 0.907 | 0.94 | 0.885 |  |  | 
16 | NCI-H1648 | 0.82 |  | 0.929 | 0.888 | 0.889 | 0.901 | 0.694 | 0.778 |  | 0.609 | 0.611 |  |  |  |  |  |  | 
17 | NCI-H522 | 0.969 | 0.9 | 0.957 | 0.996 | 0.971 | 1.16 | 0.758 | 1.11 | 0.97 | 0.967 | 0.994 |  |  |  |  |  |  | 
18 | LK-2 | 1.18 | 0.988 | 0.742 | 1.02 | 1.09 | 1.03 | 0.734 | 0.287 | 0.283 | 0.245 | 0.295 | 1.21 | 1.21 | 0.849 | 1.38 |  |  | 
19 | NCI-H1395 | 0.866 | 0.979 | 0.877 | 0.935 | 0.784 | 0.955 | 0.7 | 0.9 | 0.986 | 0.863 | 0.88 | 1.04 | 0.941 | 1.03 | 1.01 |  |  | 
20 | A549 | 1.01 | 1.12 | 0.944 | 0.932 | 0.998 | 0.937 | 0.958 |  |  |  |  | 0.723 | 0.688 | 0.721 | 0.764 |  |  | 
21 | NCI-H2170 | 1.02 | 1.02 | 0.948 | 0.972 | 1.05 | 1.01 | 0.9 | 0.26 | 0.261 | 0.264 | 0.251 | 0.892 | 0.842 | 0.741 | 0.902 |  |  | 
22 | ABC-1 | 0.956 | 1.14 | 0.869 | 0.883 | 0.827 | 0.954 | 0.816 |  |  |  |  | 1.36 | 0.944 | 0.93 | 0.891 | 0.339 | 0.363 | 0.186
